Reference: ChEMBL document CHEMBL5030533, “Mechanistic Investigation of Site-specific DNA Methylating Agents Targeting Breast Cancer Cells” (J Med Chem, 2021)
Calls of active or inactive are those of the source. The rule behind the calls is not given here.

Tests used:
[1] = target: T1, Estrogen receptor (Homo sapiens, UniProt P03372); experiment: Binding affinity of ERalpha LBD (unknown origin) incubated for 2 hrs by LanthaScreen TR-FRET assay
T1 sequence (P03372 whole entry): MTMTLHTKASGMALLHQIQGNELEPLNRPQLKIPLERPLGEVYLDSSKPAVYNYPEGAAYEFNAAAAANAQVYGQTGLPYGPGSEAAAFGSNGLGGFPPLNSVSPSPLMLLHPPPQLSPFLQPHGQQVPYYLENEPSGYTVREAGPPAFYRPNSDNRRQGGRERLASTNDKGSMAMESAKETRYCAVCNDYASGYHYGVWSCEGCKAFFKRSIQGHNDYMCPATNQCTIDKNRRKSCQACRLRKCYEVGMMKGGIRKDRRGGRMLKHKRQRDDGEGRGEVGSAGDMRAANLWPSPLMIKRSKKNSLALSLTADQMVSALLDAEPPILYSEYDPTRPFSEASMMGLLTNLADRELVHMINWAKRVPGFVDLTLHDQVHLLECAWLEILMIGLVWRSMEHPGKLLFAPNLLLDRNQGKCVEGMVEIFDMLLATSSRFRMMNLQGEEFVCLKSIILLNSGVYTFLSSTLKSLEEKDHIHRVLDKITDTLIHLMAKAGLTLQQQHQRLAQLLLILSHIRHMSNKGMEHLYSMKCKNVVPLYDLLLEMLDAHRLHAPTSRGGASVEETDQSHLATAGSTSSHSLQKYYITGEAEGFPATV

[2] = target: T2, Estrogen receptor (Homo sapiens) (UniProt P03372); experiment: Induction of ERalpha nuclear translocation in human MCF7 cells assessed as increase in IGFBP4 mRNA expression at 0.1 to 5 nM after 24 hrs by RT-qPCR analysis; assay type: cell-based; settings: dose 0.1-5 nM
T2 sequence (whole entry): T1 sequence (P03372 whole entry)

[3] = target: T2, Estrogen receptor (Homo sapiens); experiment: Induction of ERalpha nuclear translocation in human MCF7 cells assessed as increase in TFF1 mRNA expression at 0.1 to 5 nM after 24 hrs by RT-qPCR analysis; assay type: cell-based; settings: dose 0.1-5 nM
[4] = target: T2, Estrogen receptor (Homo sapiens); experiment: Induction of ERalpha nuclear translocation in human MCF7 cells assessed as increase in RasGRP1 mRNA expression at 0.1 to 5 nM after 24 hrs by RT-qPCR analysis; assay type: cell-based; settings: dose 0.1-5 nM
[5] = target: T2, Estrogen receptor (Homo sapiens); experiment: Induction of ERalpha nuclear translocation in human MCF7 cells assessed as increase in LRP2 mRNA expression at 0.1 to 5 nM after 24 hrs by RT-qPCR analysis; assay type: cell-based; settings: dose 0.1-5 nM
[6] = target: T2, Estrogen receptor (Homo sapiens); experiment: Induction of ERalpha nuclear translocation in human MCF7 cells assessed as increase in RGNEF mRNA expression at 0.1 to 5 nM after 24 hrs by RT-qPCR analysis; assay type: cell-based; settings: dose 0.1-5 nM
[7] = target: T2, Estrogen receptor (Homo sapiens); experiment: Induction of ERalpha nuclear translocation in human MCF7 cells assessed as increase in AGR2 mRNA expression at 0.1 to 5 nM after 24 hrs by RT-qPCR analysis; assay type: cell-based; settings: dose 0.1-5 nM
[8] = target: T2, Estrogen receptor (Homo sapiens); experiment: Induction of ERalpha nuclear translocation in human MCF7 cells assessed as increase in SLFN5 mRNA expression at 0.1 to 5 nM after 24 hrs by RT-qPCR analysis; assay type: cell-based; settings: dose 0.1-5 nM
[9] = tested on: MCF7; experiment: Cytotoxicity against human MCF7 cells measured after 16 hrs by MTT assay; assay type: functional, cell-based; settings: MCF7, 16 h
[10] = tested on: Calf thymus DNA; experiment: Displacement of ethidium bromide from calf thymus DNA assessed as relative binding by measuring molar equivalents by spectrofluorometric assay; assay type: nucleic-acid assay; settings: Bos taurus
[11] = tested on: Calf thymus DNA; experiment: Binding affinity to calf thymus DNA assessed as 7-MeG adduct formation at 25 uM after 24 hrs by RP-HPLC analysis; assay type: nucleic-acid assay; settings: Bos taurus
[12] = tested on: Calf thymus DNA; experiment: Binding affinity to calf thymus DNA assessed as 7-MeG adduct formation at 50 uM after 24 hrs by RP-HPLC analysis; assay type: nucleic-acid assay; settings: Bos taurus
[13] = tested on: Calf thymus DNA; experiment: Binding affinity to calf thymus DNA assessed as 7-MeG adduct formation at 100 uM after 24 hrs by RP-HPLC analysis; assay type: nucleic-acid assay; settings: Bos taurus
[14] = tested on: Calf thymus DNA; experiment: Binding affinity to calf thymus DNA assessed as 3-MeA adduct formation at 25 uM after 24 hrs by RP-HPLC analysis relative to control; assay type: nucleic-acid assay; settings: Bos taurus
[15] = tested on: Calf thymus DNA; experiment: Binding affinity to calf thymus DNA assessed as 3-MeA adduct formation at 50 uM after 24 hrs by RP-HPLC analysis relative to control; assay type: nucleic-acid assay; settings: Bos taurus
[16] = tested on: Calf thymus DNA; experiment: Binding affinity to calf thymus DNA assessed as 3-MeA adduct formation at 100 uM after 24 hrs by RP-HPLC analysis relative to control; assay type: nucleic-acid assay; settings: Bos taurus
[17] = tested on: Calf thymus DNA; experiment: Binding affinity to calf thymus DNA assessed as 3-MeA adduct formation at 100 uM after 24 hrs in presence of netropsin by RP-HPLC analysis relative to control; assay type: nucleic-acid assay; settings: Bos taurus
[18] = tested on: MCF7; experiment: Cytotoxicity against ER positive human MCF7 cells at 100 uM incubated for 24 hrs in presence of estradiol by MTT assay; assay type: functional, cell-based
[19] = tested on: Calf thymus DNA; experiment: Binding affinity to calf thymus DNA assessed as 3-MeA adduct formation at 100 uM for 24 hrs in presence of netropsin by RP-HPLC analysis; assay type: nucleic-acid assay; settings: Bos taurus
[20] = tested on: Calf thymus DNA; experiment: Binding affinity to calf thymus DNA assessed as 7-MeG adduct formation at 100 uM after 24 hrs in presence of netropsin by RP-HPLC analysis; assay type: nucleic-acid assay; settings: Bos taurus
[21] = tested on: Calf thymus DNA; experiment: Binding affinity to calf thymus DNA assessed as 3-MeA adduct formation at 25 uM after 24 hrs by RP-HPLC analysis; assay type: nucleic-acid assay; settings: Bos taurus
[22] = tested on: MCF7; experiment: Cytotoxicity against ER positive human MCF7 cells incubated for 24 hrs in presence of estradiol by MTT assay; assay type: functional, cell-based; settings: MCF7, 24 h
[23] = tested on: MDA-MB-231; experiment: Cytotoxicity against ER negative human MDA-MB-231 cells incubated for 24 hrs in presence of estradiol by MTT assay; assay type: functional, cell-based; settings: MDA-MB-231, 24 h
[24] = tested on: Calf thymus DNA; experiment: Binding affinity to calf thymus DNA assessed as 3-MeA adduct formation at 50 uM after 24 hrs by RP-HPLC analysis; assay type: nucleic-acid assay; settings: Bos taurus
[25] = tested on: Calf thymus DNA; experiment: Binding affinity to calf thymus DNA assessed as 3-MeA adduct formation at 100 uM after 24 hrs by RP-HPLC analysis; assay type: nucleic-acid assay; settings: Bos taurus
[26] = tested on: Calf thymus DNA; experiment: Binding affinity to calf thymus DNA assessed as 3-MeA adduct formation at 5000 uM after 24 hrs by RP-HPLC analysis; assay type: nucleic-acid assay; settings: Bos taurus
[27] = tested on: Calf thymus DNA; experiment: Binding affinity to calf thymus DNA assessed as 3-MeA adduct formation at 5000 uM after 24 hrs by RP-HPLC analysis relative to control; assay type: nucleic-acid assay; settings: Bos taurus
[28] = tested on: Calf thymus DNA; experiment: Binding affinity to calf thymus DNA assessed as 3-MeA adduct formation at 5000 uM after 24 hrs in presence of netropsin by RP-HPLC analysis relative to control; assay type: nucleic-acid assay; settings: Bos taurus
[29] = tested on: Calf thymus DNA; experiment: Binding affinity to calf thymus DNA assessed as 3-MeA adduct formation at 5000 uM after 24 hrs in presence of netropsin by RP-HPLC analysis; assay type: nucleic-acid assay; settings: Bos taurus
[30] = target: T2, Estrogen receptor (Homo sapiens); experiment: Induction of ERalpha nuclear translocation in human MCF7 cells at 15 nM after 5 hrs by immunofluorescence assay; assay type: cell-based

Row | Compound | Activity [2] | Activity [3] | Activity [4] | Activity [5] | Activity [6] | Activity [7] | Activity [8] | EC50 [9] [µM] | Activity [10] [Mequiv] | Activity [11] [µmol] | Activity [12] [µmol] | Activity [13] [µmol] | Activity [14] [%] | Activity [15] [%] | Activity [16] [%] | Activity [17] [%] | Activity [19] [µmol] | Activity [20] [µmol] | Activity [21] [µmol] | Activity [24] [µmol] | other results
1 | Cn1cc(NC(=O)c2cc(NC(=O)CCS(C)(=O)=O)cn2C)cc1C(=O)NCC(=O)NCCCCCC[C@@H]1Cc2cc(O)ccc2[C@H]2CC[C@]3(C)[C@@H](O)CC[C@H]3[C@H]12 | Active | Active | Active | inactive | Active | Active | Active | 122 | 4.35 | – | – | – | – | – | – | – | – | – | – | – | IC50 [1]: 0.00099 µM
2 | COS(=O)(=O)CCC(=O)Nc1cc(C(=O)Nc2cc(C(=O)NCCC(=O)NCCCCCC[C@@H]3Cc4cc(O)ccc4[C@H]4CC[C@]5(C)[C@@H](O)CC[C@H]5[C@H]34)n(C)c2)n(C)c1 | – | – | – | – | – | – | – | 39.4 | – | 93 | 253 | 495 | 99 | 98 | 97 | 95 | 769 | 409 | 6520 | – | Activity [18]: inactive; EC50 [22]: 50.7 µM; EC50 [23]: 160 µM
3 | COS(=O)(=O)CCC(=O)Nc1cc(C(=O)Nc2cc(C(=O)NCCCC(=O)NCCCCCC[C@@H]3Cc4cc(O)ccc4[C@H]4CC[C@]5(C)[C@@H](O)CC[C@H]5[C@H]34)n(C)c2)n(C)c1 | – | – | – | – | – | – | – | 89.5 | – | 147 | 204 | 318 | 83 | 82 | 79 | 86 | 173 | 420 | 699 | 922 | Activity [25]: 1210 µmol
4 | Cn1cc(NC(=O)c2cc(NC(=O)CCS(C)(=O)=O)cn2C)cc1C(=O)NCCC(=O)NCCCCCC[C@@H]1Cc2cc(O)ccc2[C@H]2CC[C@]3(C)[C@@H](O)CC[C@H]3[C@H]12 | Active | Active | Active | inactive | Active | Active | Active | – | 2.54 | – | – | – | – | – | – | – | – | – | – | – | IC50 [1]: 0.00148 µM
5 | COS(C)(=O)=O | – | – | – | – | – | – | – | – | – | – | – | – | – | – | – | – | – | – | – | – | Activity [26]: 1800 µmol; Activity [27]: 9%; Activity [28]: 31%; Activity [29]: 1240 µmol
6 | CCCNC(=O)c1cc(NC(=O)c2cc(NC(=O)CCS(=O)(=O)OC)cn2C)cn1C | – | – | – | – | – | – | – | 85 | – | 185 | 399 | 774 | 96 | 95 | 95 | 95 | – | 714 | 4600 | 8230 | Activity [18]: Active
7 | COS(=O)(=O)CCC(=O)Nc1cc(C(=O)Nc2cc(C(=O)NCC(=O)NCCCCCC[C@@H]3Cc4cc(O)ccc4[C@H]4CC[C@]5(C)[C@@H](O)CC[C@H]5[C@H]34)n(C)c2)n(C)c1 | – | – | – | – | – | – | – | 142 | – | 194 | 404 | 404 | 89 | 86 | 83 | 91 | 180 | 482 | 1620 | 1760 | Activity [25]: 1920 µmol; Activity [30]: Active
8 | Cn1cc(NC(=O)c2cc(NC(=O)CCS(C)(=O)=O)cn2C)cc1C(=O)NCCCC(=O)NCCCCCC[C@@H]1Cc2cc(O)ccc2[C@H]2CC[C@]3(C)[C@@H](O)CC[C@H]3[C@H]12 | Active | Active | Active | Active | Active | Active | Active | 146 | 4.43 | – | – | – | – | – | – | – | – | – | – | – | –
